PubChem BioAssay (NCI)
Values joined by “and” are separate entries in the source; they are usually repeats but may differ in a detail not shown here. Equal entries are not always repeated.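 96-well plates; 48 h exposure; 5 concentrations. Endpoints by linear interpolation between flanking doses. Not reached: highest tested concentration assigned. GI50: concentration for 50% inhibition of growth. TGI: concentration producing complete growth inhibition.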

Legend:
Assay in all cases: growth of human tumour cells (NCI), 48 h
NCI-H522 lung = test system: NCI-H522 lung
HT29 colon = test system: HT29 colon
SW-620 colon = test system: SW-620 colon
K-562 leukemia = test system: K-562 leukemia
CAKI-1 renal = test system: CAKI-1 renal
HL-60(TB) leukemia = test system: HL-60(TB) leukemia
OVCAR-3 ovarian = test system: OVCAR-3 ovarian
HCC-2998 colon = test system: HCC-2998 colon
SK-OV-3 ovarian = test system: SK-OV-3 ovarian
MALME-3M melanoma = test system: MALME-3M melanoma

SMILES	GI50 (NCI-H522 lung)	TGI (NCI-H522 lung)	GI50 (HT29 colon)	TGI (HT29 colon)	GI50 (SW-620 colon)	TGI (SW-620 colon)	GI50 (K-562 leukemia) [µM]	TGI (K-562 leukemia)	GI50 (CAKI-1 renal)	TGI (CAKI-1 renal)	GI50 (HL-60(TB) leukemia) [µM]	TGI (HL-60(TB) leukemia)	GI50 (OVCAR-3 ovarian)	TGI (OVCAR-3 ovarian)	GI50 (HCC-2998 colon) [µM]	TGI (HCC-2998 colon) [µM]	GI50 (SK-OV-3 ovarian)	TGI (SK-OV-3 ovarian)	GI50 (MALME-3M melanoma)	TGI (MALME-3M melanoma)
COc1ccc([N+](=O)[O-])c(S(=O)(=O)c2ccc(Cl)cc2)n1	1.86 µM	3.77 µM	3.34 µM	13.9 µM	2.06 µM	4.65 µM	3.02	> 100 µM	1.61 µM	3.01 µM	6.8	41 µM	2.34 µM	5.31 µM	8.38	23.8	15.1 µM	31.9 µM	2 µM	4.08 µM
COc1cc(-n2cc(-c3ccc(Cl)cc3)[nH]c2=O)cc(OC)c1OC	19.9 µM	54 µM	43.8 µM	> 100 µM	> 100 µM	> 100 µM	> 100	> 100 µM	16.2 µM	35.6 µM	> 100	> 100 µM	21 µM	50.1 µM	47.4	> 100	35.8 µM	93 µM	32 µM	77.4 µM
COC(=O)CCC/C=C\C[C@H]1C=CC(=O)/C1=C/C[C@@H](O)C/C=C\CC(F)(F)F	1.06 µM	2.57 µM	1.89 µM	4.49 µM	1.89 µM	12.4 µM	0.789	28.3 µM	4.07 µM	14.8 µM	1.93	7.79 µM	1.31 µM	3.49 µM	2	3.5	5.55 µM	16.5 µM	2.39 µM	7.03 µM
CSc1nc2sc3cc(Cl)ccc3n2c(=N)c1C#N	62.7 µM	> 100 µM	5.35 µM	> 100 µM	38.2 µM	> 100 µM	> 52.4	> 100 µM	17.1 µM	88.2 µM	7.71	> 100 µM	11.8 µM	> 100 µM	18.5	> 100	12.5 µM	> 100 µM	14.7 µM	> 100 µM
CC(C)(C)c1ccc(C(O)c2ccc(C(C)(C)C)cc2)cc1	–	22 µM	–	22.3 µM	–	27.9 µM	–	33.3 µM	–	28.4 µM	–	35.6 µM	–	27.6 µM	–	35.6	–	27.8 µM	–	30.4 µM
NC1=N/C(=C2/CCNC(=O)c3[nH]c(Br)cc32)C(=O)N1	7.44 µM and 2.54 µM	32.5 µM and 17.4 µM	27.2 µM and 67.7 µM	> 100 µM	2.71 µM and 6.12 µM	> 100 µM	–	> 100 µM	> 33.9 µM and 5.68 µM	> 100 µM	–	11.2 µM and 6.94 µM	4.29 µM and 10.7 µM	43 µM and 40.1 µM	–	> 100	7.66 µM and 16.1 µM	> 100 µM	8.82 µM and 25.1 µM	> 100 µM
C[C@@H]1C=C2C(=O)O[C@@H]3CC[C@H](C1)[C@]23O	2.24 µM	9.43 µM	3.46 µM	13.4 µM	–	12.8 µM	2.7	34.6 µM	–	12.7 µM	–	5.71 µM	3.44 µM	11.1 µM	16.9	32.9	15.5 µM	64.3 µM	4.18 µM	23.3 µM
NCCNC(=S)S	–	16.6 µM	–	> 100 µM	–	> 100 µM	–	95.1 µM	–	> 100 µM	–	> 100 µM	–	> 100 µM	–	> 100	–	> 100 µM	–	30 µM
COC1=CC(c2ccc[nH]2)=N/C1=C\c1ccc[nH]1	0.284 µM	2.68 µM	< 0.013 µM	3.93 µM	0.0393 µM	13.8 µM	0.273	> 32.7 µM	0.151 µM	3.26 µM	0.0672	3.39 µM	0.0964 µM	3.8 µM	0.361	9.54	5.37 µM	18.6 µM	0.723 µM	4.25 µM
Cc1[nH]c(=O)[nH]c(=O)c1CO	> 100 µM	> 100 µM	> 100 µM	> 100 µM	> 100 µM	> 100 µM	> 100	> 100 µM	> 100 µM	> 100 µM	> 100	> 100 µM	> 100 µM	> 100 µM	> 100	> 100	> 100 µM	> 100 µM	> 100 µM	> 100 µM
CCOC(=O)c1c(C(F)(F)F)n([O-])c2ccc(OC)cc2[n+]1=O	6.52 µM	31 µM	7.89 µM	> 100 µM	5.79 µM	> 100 µM	3.76	24.9 µM	3.46 µM	19.9 µM	3.01	9.63 µM	4.31 µM	44.8 µM	4.77	35.1	3.71 µM	20.3 µM	2.83 µM	30.9 µM
CCC(=C/[C@H](C)C/C=C/C(C)=C/[C@@H](C)C(=O)[C@@H](C)[C@H](O)[C@@H](C)CC)/C=C/[C@H]1OC(=O)C=C[C@H]1C	< 0.01 µM	< 0.01 µM	< 0.01 µM	1.2 µM	< 0.01 µM	1.9 µM	< 0.01	< 0.01 µM	< 0.01 µM	1.8 µM	< 0.01	< 0.04 µM	< 0.01 µM	–	< 0.01	< 0.01	< 0.0221 µM	3.44 µM	< 0.01 µM	–
C1=Cc2nc1c(-c1ccncc1)c1ccc([n-]1)c(-c1ccncc1)c1nc(c(-c3ccncc3)c3ccc([n-]3)c2-c2ccncc2)C=C1.[Zn+2]	–	> 100 µM	–	> 100 µM	–	> 100 µM	–	> 100 µM	–	> 100 µM	–	> 100 µM	–	> 100 µM	–	> 100	–	> 100 µM	–	> 100 µM
N#Cc1cc([N+](=O)[O-])ccc1NC(=O)C(=O)C(C(=O)/C=C/c1ccccc1)C1OC(=O)c2ccccc21 (stereo not given)	–	> 100 µM	–	> 100 µM	–	> 100 µM	–	> 100 µM	–	> 100 µM	–	> 100 µM	–	> 100 µM	–	> 100	–	> 100 µM	–	> 100 µM
CCN(CC)C(=O)COc1ccc(Br)cc1Br	–	> 100 µM	–	> 100 µM	–	> 100 µM	–	> 100 µM	–	> 100 µM	–	> 100 µM	–	> 100 µM	–	> 100	–	> 100 µM	–	> 100 µM
Cn1cc(C2=C(c3cn(CCN)c4ccccc34)C(=O)NC2=O)c2ccccc21	6.01 µM	17.2 µM	4.2 µM	15.7 µM	6.25 µM	> 20.1 µM	8.4	> 25 µM	4.18 µM	24.5 µM	6.55	14.9 µM	7.47 µM	> 23.9 µM	7.22	20.9	6.17 µM	24.4 µM	5.99 µM	13.5 µM
CO[C@@H]1[C@H](OC(=O)NC(=O)CCl)CC[C@]2(CO2)[C@H]1[C@@]1(C)O[C@@H]1CC=C(C)C	1.23 µM and 7.41 µM	3.99 µM and 16.8 µM and 33.8 µM	8.62 µM and 20.5 µM	27.5 µM and 88.9 µM	5.73 µM and 4.16 µM	51.7 µM and 41.3 µM	32.7	58.5 µM and 129 µM	29.6 µM	25.7 µM and 59.1 µM	–	14.8 µM	8.68 µM	21.3 µM and 30.7 µM	–	10.8	2.52 µM and 20.8 µM	39.5 µM and 59.2 µM	4.16 µM	18.5 µM and 18.7 µM
C[C@H]1[C@H](C)CC[C@]2(C(=O)O)CC[C@]3(C)C(=CC[C@@H]4[C@@]5(C)C/C(=C/c6ccco6)C(=O)C(C)(C)[C@@H]5CC[C@]43C)[C@H]12	6.35 µM	23.6 µM	5.3 µM	34.6 µM	4.19 µM	19.5 µM	3.26	> 100 µM	4.55 µM	18 µM	2.44	7.04 µM	3.44 µM	11.9 µM	3.84	15.3	5.83 µM	33.9 µM	8.01 µM	22.2 µM
CCCCCCCC[N+](C)(CCCCCCCC)CCCCCCCC	0.223 µM	0.746 µM	0.295 µM	1.25 µM	0.338 µM	1.46 µM	0.108	0.447 µM	0.0838 µM	0.639 µM	0.14	0.366 µM	0.267 µM	0.792 µM	0.305	1.17	0.468 µM	1.71 µM	0.224 µM	0.713 µM
Cc1ccccc1C(C#N)C(=O)C(=O)Nc1cccc(Cl)c1 (stereo not given)	–	> 100 µM	–	> 100 µM	–	31.6 µM	–	> 100 µM	–	> 100 µM	–	> 100 µM	–	> 100 µM	–	> 100	–	> 100 µM	–	> 100 µM
O=C(COc1ccccc1)NS(=O)(=O)c1ccccc1	–	> 100 µM	–	> 100 µM	–	> 100 µM	–	> 100 µM	–	> 100 µM	–	> 100 µM	–	> 100 µM	–	> 100	–	> 100 µM	–	> 100 µM
